From patent US8242174B2 (priority 2007, dated 2012)
Structures can show the parent of a compound that is named as a salt.

target: Lethal factor protease (Bacillus anthracis, UniProt P15917); test: biochemical
Sequence (P15917 34-809 limits assumed): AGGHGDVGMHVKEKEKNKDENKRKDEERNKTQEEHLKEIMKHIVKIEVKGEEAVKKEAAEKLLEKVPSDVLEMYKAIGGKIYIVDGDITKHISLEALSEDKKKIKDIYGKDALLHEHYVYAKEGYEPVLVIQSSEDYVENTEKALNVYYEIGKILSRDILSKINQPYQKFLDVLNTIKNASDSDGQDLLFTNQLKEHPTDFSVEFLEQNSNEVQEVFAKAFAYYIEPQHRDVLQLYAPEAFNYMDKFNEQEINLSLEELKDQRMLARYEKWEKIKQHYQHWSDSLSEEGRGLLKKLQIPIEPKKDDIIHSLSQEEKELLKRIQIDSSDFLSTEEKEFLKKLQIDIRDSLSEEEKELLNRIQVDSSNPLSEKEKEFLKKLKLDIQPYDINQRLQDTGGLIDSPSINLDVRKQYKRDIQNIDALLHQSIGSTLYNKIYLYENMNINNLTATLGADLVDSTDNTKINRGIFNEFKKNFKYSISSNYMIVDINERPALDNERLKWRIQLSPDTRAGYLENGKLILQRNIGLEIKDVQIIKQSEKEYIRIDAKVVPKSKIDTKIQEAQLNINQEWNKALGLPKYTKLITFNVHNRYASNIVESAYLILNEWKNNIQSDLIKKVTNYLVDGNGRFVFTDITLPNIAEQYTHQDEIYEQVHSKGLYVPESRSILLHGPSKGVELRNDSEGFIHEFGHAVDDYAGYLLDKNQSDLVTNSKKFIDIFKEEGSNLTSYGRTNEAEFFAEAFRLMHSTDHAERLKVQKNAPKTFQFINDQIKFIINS

Point of comparison: `CCCC[C@H](Nc1cc(C)c(F)c(C)c1)C(=O)NO` [Compound 167295, (S)-2-(4-Fluoro-3,5-dimethyl-phenylamino)-hexanoic acid hydroxyamide], Ki 106 µM. Against it:
- CCCCC(Nc1cc(Br)cc(Br)c1)C(=O)NO (stereo not shown) [Compound 167843, 2-(3,5-Dibromo-phenylamino)-hexanoic acid hydroxyamide] — 2-fold lower, 52.3 µM
- CCCC[C@@H](Nc1ccc(F)c(C)c1)C(=O)NO [Compound 167273, (R)-2-(4-Fluoro-3-methyl-phenylamino)-hexanoic acid hydroxyamide] — 150-fold lower, 0.71 µM
- CCCCC(Nc1cc(OC)cc(OC)c1)C(=O)NO (stereo not shown) [Compound 167772, 2-(3,5-Dimethoxy-phenylamino)-hexanoic acid hydroxyamide] — 2.4-fold higher, 257 µM
- Cc1cc(N[C@H](CCCCNC(=O)Cc2cccc(Oc3ccccc3)c2)C(=O)NO)cc(C)c1F [Compound 167611, (R)-2-(4-Fluoro-3,5-dimethyl-phenylamino)-6-[2-(3-phenoxy-phenyl)-acetylamino]-hexanoic acid hydroxyamide] — 140-fold lower, 0.74 µM
- Cc1cc(N[C@H](CCCCNCc2ccc(F)c(F)c2)C(=O)NO)ccc1F [Compound 167990, (R)-6-(3,4-Difluoro-benzylamino)-2-(4-fluoro-3-methyl-phenylamino)-hexanoic acid hydroxyamide] — 1100-fold lower, 0.1 µM
- Cc1cc(N[C@H](CCCCNCc2cnccn2)C(=O)NO)ccc1F [Compound 168168, (R)-2-(4-Fluoro-3-methyl-phenylamino)-6-[(pyrazin-2-ylmethyl)-amino]-hexanoic acid hydroxyamide] — 170-fold lower, 0.63 µM
- Cc1cc(N[C@H](CCCCNC(=O)CCc2ccccc2)C(=O)NO)ccc1F [Compound 167993, (R)-2-(4-Fluoro-3-methyl-phenylamino)-6-(3-phenyl-propionylamino)-hexanoic acid hydroxyamide] — 120-fold lower, 0.88 µM
- Cc1cc(N[C@H](CCCCN(Cc2cc(C)c(F)c(C)c2)Cc2cc(C)c(F)c(C)c2)C(=O)NO)ccc1F [Compound 167971, (R)-6-[Bis-(4-fluoro-3,5-dimethyl-benzyl)-amino]-2-(4-fluoro-3-methyl-phenylamino)-hexanoic acid hydroxyamide] — 20-fold lower, 5.2 µM
- Cc1cc(N[C@H](COCc2ccccc2)C(=O)NO)cc(C)c1F [Compound 167379, (R)-3-Benzyloxy-2-(4-fluoro-3,5-dimethyl-phenylamino)-N-hydroxy-propionamide] — 74-fold lower, 1.44 µM
- CCCC[C@@H](Nc1cc(C)c(F)c(C)c1)C(=O)NO [Compound 167294, (R)-2-(4-Fluoro-3,5-dimethyl-phenylamino)-hexanoic acid hydroxyamide] — 200-fold lower, 0.52 µM
- Cc1cc(CCCCCC[C@@H](Nc2cc(C)c(F)c(C)c2)C(=O)NO)ccc1F [Compound 168118, (R)-2-(4-Fluoro-3,5-dimethyl-phenylamino)-8-(4-fluoro-3-methyl-phenyl)-octanoic acid hydroxyamide] — 15-fold lower, 7.2 µM
- CCCCC(Nc1cccc(C#N)c1)C(=O)NO (stereo not shown) [Compound 167719, 2-(3-Cyano-phenylamino)-hexanoic acid hydroxyamide] — 2.2-fold lower, 49 µM
- Cc1cc(N[C@H](Cc2ccccc2)C(=O)NO)cc(C)c1F [Compound 167378, (R)-2-(4-Fluoro-3,5-dimethyl-phenylamino)-N-hydroxy-3-phenyl-propionamide] — 15-fold lower, 7 µM
- Cc1cc(NCC(=O)NO)ccc1F [Compound 166986, 2-(4-Fluoro-3-methyl-phenylamino)-N-hydroxy-acetamide] — 14-fold lower, 7.6 µM
- Cc1cc(N[C@H](CCCCNC(=O)OCc2ccccc2)C(=O)NO)cc(C)c1F [Compound 167503, (R)-[5-(4-Fluoro-3,5-dimethyl-phenylamino)-5-hydroxycarbamoyl-pentyl]-carbamic acid benzyl ester] — 370-fold lower, 0.29 µM
- Cc1cc(N[C@H](CCCCNC(=O)c2ccccc2)C(=O)NO)cc(C)c1F [Compound 167587, (R)—N-[5-(4-Fluoro-3,5-dimethyl-phenylamino)-5-hydroxycarbamoyl-pentyl]-benzamide] — 110-fold lower, 0.97 µM
- CCCCC(Nc1cccc(F)c1)C(=O)NO (stereo not shown) [Compound 167277, 2-(3-Fluoro-phenylamino)-hexanoic acid hydroxyamide] — within 1.5-fold, 134 µM
- Cc1cc(N[C@@H](C(=O)NO)C(C)C)cc(C)c1F [Compound 167264, (R)-2-(4-Fluoro-3,5-dimethyl-phenylamino)-N-hydroxy-3-methyl-butyramide] — 34-fold lower, 3.1 µM
- Cc1cc(N[C@@H](C(=O)NO)C(C)C)ccc1F [Compound 167267, (R)-2-(4-Fluoro-3-methyl-phenylamino)-N-hydroxy-3-methyl-butyramide hydrochloride] — 6.8-fold lower, 15.7 µM
- Cc1cc(N[C@H](CO)C(=O)NO)cc(C)c1F [Compound 167485, (R)-2-(4-Fluoro-3,5-dimethyl-phenylamino)-3,N-dihydroxy-propionamide] — 180-fold lower, 0.59 µM
- Cc1cc(N[C@H](CCCCN(Cc2ccc(F)nc2)Cc2ccc(F)nc2)C(=O)NO)ccc1F [Compound 168080, (R)-6-[Bis-(6-fluoro-pyridin-3-ylmethyl)-amino]-2-(4-fluoro-3-methyl-phenylamino)-hexanoic acid hydroxyamide] — 10-fold lower, 10.6 µM
- Cc1cc(N[C@H](CCCCNCc2ccc(Cl)cc2)C(=O)NO)ccc1F [Compound 168181, (R)-6-(4-Chloro-benzylamino)-2-(4-fluoro-3-methyl-phenylamino)-hexanoic acid hydroxyamide] — 560-fold lower, 0.19 µM
- Cc1cc(N[C@H](CCCCNS(=O)(=O)c2cccc(C(=O)O)c2)C(=O)NO)cc(C)c1F [Compound 167621, (R)-3-[5-(4-Fluoro-3,5-dimethyl-phenylamino)-5-hydroxycarbamoyl-pentylsulfamoyl]-benzoic acid] — 68-fold lower, 1.57 µM
- Cc1cc(N[C@H](CCCCNC(=O)OC(C)(C)C)C(=O)NO)cc(C)c1F [Compound 167561, (R)-[5-(4-Fluoro-3,5-dimethyl-phenylamino)-5-hydroxycarbamoyl-pentyl]-carbamic acid tert-butyl ester] — 150-fold lower, 0.71 µM
- CCCCC(Nc1ccc(F)c(C)c1)C(=O)NO (stereo not shown) [Compound 167162, 2-(4-Fluoro-3-methyl-phenylamino)-hexanoic acid hydroxyamide] — 53-fold lower, 2 µM
- CCCCC(Nc1ccc(C)c(F)c1C)C(=O)NO (stereo not shown) [Compound 167455, 2-(3-Fluoro-2,4-dimethyl-phenylamino)-hexanoic acid hydroxyamide] — within 1.5-fold, 88.1 µM
- Cc1cc(S(=O)(=O)NCCCC[C@@H](Nc2cc(C)c(F)c(C)c2)C(=O)NO)ccc1F [Compound 167590, (R)-2-(4-Fluoro-3,5-dimethyl-phenylamino)-6-(4-fluoro-3-methyl-benzenesulfonylamino)-hexanoic acid hydroxyamide] — 420-fold lower, 0.25 µM
- Cc1cc(N[C@H](CCCCNC(=O)CCCc2ccccc2)C(=O)NO)ccc1F [Compound 167994, (R)-2-(4-Fluoro-3-methyl-phenylamino)-6-(4-phenyl-butyrylamino)-hexanoic acid hydroxyamide] — 160-fold lower, 0.65 µM
- Cc1cc(N[C@H](CCCCNC(=O)OC(C)(C)C)C(=O)NO)ccc1F [Compound 167926, (R)-[5-(4-Fluoro-3-methyl-phenylamino)-5-hydroxycarbamoyl-pentyl]-carbamic acid tert-butyl ester] — 37-fold lower, 2.9 µM
- CCCCC(Nc1cccc(C(C)C)c1)C(=O)NO (stereo not shown) [Compound 167183, 2-(3-Isopropyl-phenylamino)-hexanoic acid hydroxyamide] — higher, > 300 µM
- Cc1cc(N[C@H](CCCCN)C(=O)NO)cc(C)c1F [Compound 167517, (R)-6-Amino-2-(4-fluoro-3,5-dimethyl-phenylamino)-hexanoic acid hydroxyamide] — 420-fold lower, 0.25 µM
- CC[C@@H](Nc1cc(C)c(F)c(C)c1)C(=O)NO [Compound 167450, (R)-2-(4-Fluoro-3,5-dimethyl-phenylamino)-N-hydroxy-butyramide] — 160-fold lower, 0.67 µM
- Cc1cc(N[C@H](CCCCNCc2ccc(F)cc2)C(=O)NO)ccc1F [Compound 167945, (R)-6-(4-Fluoro-benzylamino)-2-(4-fluoro-3-methyl-phenylamino)-hexanoic acid hydroxyamide] — 3500-fold lower, 0.03 µM
- Cc1cc(N[C@@H](C(=O)NO)c2ccccc2)cc(C)c1F [Compound 167425, (R)-2-(4-Fluoro-3,5-dimethyl-phenylamino)-N-hydroxy-2-phenyl-acetamide] — 220-fold lower, 0.48 µM
- CNc1ccc(S(=O)(=O)NCCCC[C@@H](Nc2cc(C)c(F)c(C)c2)C(=O)NO)cc1 [Compound 167657, (R)-2-(4-Fluoro-3,5-dimethyl-phenylamino)-6-(4-methylamino-benzenesulfonylamino)-hexanoic acid hydroxyamide] — 260-fold lower, 0.41 µM
- CCCCC(Nc1ccccc1C)C(=O)NO (stereo not shown) [Compound 167292, 2-o-Tolylamino-hexanoic acid hydroxyamide] — 2.6-fold higher, 273 µM
- Cc1cccc(CN(CCCC[C@@H](Nc2cc(C)c(F)c(C)c2)C(=O)NO)Cc2cccc(C)c2)c1 [Compound 167932, (R)-6-[Bis-(3-methyl-benzyl)-amino]-2-(4-fluoro-3,5-dimethyl-phenylamino)-hexanoic acid hydroxyamide] — 96-fold lower, 1.1 µM
- Cc1cc(N[C@H](CCCCNC(=O)C(c2ccccc2)c2ccccc2)C(=O)NO)cc(C)c1F [Compound 167610, (R)-6-Diphenylacetylamino-2-(4-fluoro-3,5-dimethyl-phenylamino)-hexanoic acid hydroxyamide] — 79-fold lower, 1.34 µM
- Cc1cc(N[C@H](CCCCNCc2ccc3sccc3c2)C(=O)NO)ccc1F [Compound 168182, (R)-6-[(Benzo[b]thiophen-5-ylmethyl)-amino]-2-(4-fluoro-3-methyl-phenylamino)-hexanoic acid hydroxyamide] — 710-fold lower, 0.15 µM
- Cc1cc(N[C@H](CCCCNS(=O)(=O)c2ccc(N(C)C)cc2)C(=O)NO)cc(C)c1F [Compound 167699, (R)-6-(4-Dimethylamino-benzenesulfonylamino)-2-(4-fluoro-3,5-dimethyl-phenylamino)-hexanoic acid hydroxyamide] — 250-fold lower, 0.43 µM
- Cc1cc(N[C@@H](C)C(=O)NO)cc(C)c1F [Compound 167498, (S)-2-(4-Fluoro-3,5-dimethyl-phenylamino)-N-hydroxy-propionamide] — 2.1-fold lower, 51 µM
- Cc1cc(N[C@H](CCCCNCc2ccccc2)C(=O)NO)cc(C)c1F [Compound 167736, (R)-6-Benzylamino-2-(4-fluoro-3,5-dimethyl-phenylamino)-hexanoic acid hydroxyamide] — 960-fold lower, 0.11 µM
